Laboratory results reported in patent publication US10806694B2, “Nanoparticles for photodynamic therapy, X-ray induced photodynamic therapy, radiotherapy, radiodynamic therapy, chemotherapy, immunotherapy, and any combination thereof” (The University of Chicago, priority 2014, dated 2020).

Experiments:
[1] = Fluorescence lifetime by Time-Correlated Single Photon Counting; fluorescence intensity; assay type: physicochemical
Procedure: The fluorescence spectra of H2DBP ligand and DBP-UiO NMOF were taken on a spectrofluorophotometer (RF-5301PC, Shimadzu Corporation, Kyoto, Japan).
Time-domain lifetimes were measured on a ChronosBH lifetime fluorimeter (ISS, Inc., Champaign, Ill., United States of America) using Time-Correlated Single Photon Counting (TCSPC) methods. The fluorimeter contained Becker-Hickl SPC-130 detection electronics and an HPM-100-40 Hybrid PMT detector. Tunable picosecond pulsed excitation was provided by a Fianium SC400-2 supercontiuum laser source with integrated pulse picker and AOTF. Emission wavelengths were selected with bandpass filters (Semrock and Chroma). The Instrument Response Function (IRF) was measured to be approximately 120 ps FWHM in a 1% scattering solution of Ludox LS colloidal silica. Lifetimes were fit via a forward convolution method in the Vinci control and analysis software.
Fluorescence spectra of suspensions of Hf-MOF (0.04 mM of L ligand) in water, DMF, and THF were taken with an excitation wavelength of 368.8 nm. […] Fluorescence lifetimes of Hf-MOF, Zr-MOF, and H2L suspensions in water were also examined.

[2] = UV-visible absorption, extinction coefficient; assay type: physicochemical
Procedure: The UV-visible absorption spectra of H2DBP and DBP-UiO were acquired with a UV-vis spectrophotometer (UV-2401 PC, Shimadzu Corporation, Kyoto, Japan). The H2DBP solution and DBP-UiO NMOF suspension were prepared in 0.67 mM phosphate buffer saline (PBS). The absorption of standard solutions of H2DBP at concentrations of 0.2, 0.4, 0.6, 0.8, 1, 1.5, 4 and 8 mg/L were acquired and the standard curve was plotted by linear fitting of the absorbance at 402 nm. The extinction coefficients of H2DBP at 402 nm and 619 nm are 2.2×10^5 and 1.7×10^3 M^−1cm^−1, respectively.
UV-visible absorption spectroscopy confirmed the photophysical properties of chlorin-based PSs. H2DBC has a split Soret band at λmax=408 nm and four Q-bands at 504, 534, 591, and 643 nm. […] The lowest energy Q-band of DBC-UiO has thus red-shifted by 13 nm from DBP-UiO, with an ε value of 24600 M^−1·cm^−1. H2DBC has an ε value of 21800 M^−1·cm^−1 for the lowest energy Q-band.

HT29 cells = assay: In vitro PDT cytotoxicity; assay type: cell-based, human; conditions: with irradiation, LED 90 J/cm^2 (0.1 W/cm^2, 15 min), 640 or 650 nm
Procedure: The tumor cell uptake of NMOFs was evaluated by incubating CT26 cells with DBP-UiO or DBC-UiO at a Hf concentration of 50 μM for 4 h. […] The in vitro PDT efficacy of DBC-UiO against colon cancer cells was investigated and compared with DBP-UiO and their corresponding free ligands. […] DBP-UiO and […]: 640 nm; DBC-UiO and […]: 650 nm). DBC-UiO outperformed DBP-UiO by effectively killing both cancer cell lines at low NMOF and light doses.

[3] = tested on: subcutaneous flank tumor mouse model of CT26; assay: In vivo PDT anticancer efficacy; design: species or system mice; conditions: ligand dose 1 mg/kg intratumoral, 90 J/cm^2, two treatments
Procedure: (§1) In vivo anticancer efficacy experiments on subcutaneous flank tumor mouse models of CT26 and HT29 were performed. The mice were intratumorally injected with (1) PBS control, (2) DBC-UiO, (3) DBP-UiO, (4) H2DBC, or (5) H2DBP at a ligand dose of 1 mg/kg or (6) DBC-UiO at a ligand dose of 3.5 mg/kg. Twelve hours post injection, each mouse in group (1)-(5) was irradiated at the tumor site with light (0.1 W/cm^2) for 15 min (90 J/cm^2) and the mice in group (6) received light irradiation (0.1 W/cm^2) for 30 min (180 J/cm^2). For (1) to (5) groups on the CT26 model, mice are treated again 4 days after first treatment, while for (1) to (5) groups on HT29 model, mice are treated every 4 days for total 4 treatments.

[4] = tested on: subcutaneous flank tumor mouse model of HT29; assay: In vivo PDT anticancer efficacy; design: species or system mice; conditions: ligand dose 1 mg/kg intratumoral, 90 J/cm^2, four treatments
Procedure: as §1

Work on 5, 15-di(p-benzoato)chlorin [H2DBC] yielded a μ1 ([1]; in DMF) of 8.27 ns, a μ1 ([1]; in HBSS) of 5.80 ns and a μ2 ([1]; in HBSS) of 8.77 ns. The τ ([1]; in HBSS) was 8.15 ns, the “ε value of the lowest energy Q-band” value [2] was 21800 M⁻¹ cm⁻¹ and the IC50 (HT29 cells) was 7.5 ± 2.3 µM. For the same compound, the tumor growth [3] was “failed to suppress the tumor growth” and the tumor growth [4] was “failed to suppress the tumor growth”.
With `O=C(O)c1ccc(-c2c3nc(cc4ccc([nH]4)c(-c4ccc(C(=O)O)cc4)c4nc(cc5ccc2[nH]5)C=C4)C=C3)cc1` [H2DBP, 5,15-di(p-benzoato)porphyrin] the μ1 ([1]; aq) was 12.4 ns, the μ2 ([1]; aq) was 7.86 ns and the τ ([1]; aq) was 10.9 ns. The μ1 ([1]; in DMF) was 11.3 ns, the “extinction coefficient at 402 nm” value ([2]; PBS) was 220000 M⁻¹ cm⁻¹ and the “extinction coefficient at 619 nm” value ([2]; PBS) was 1700 M⁻¹ cm⁻¹. For the same compound, the IC50 (HT29 cells) was 17 ± 4 µM, the tumor growth [3] was “failed to suppress the tumor growth” and the tumor growth [4] was “failed to suppress the tumor growth”.
